# US20230085307A1, “PYRIDAZINONE COMPOUND AND HERBICIDE” (NISSAN CHEMICAL CORPORATION, priority 2019, published 2023)
# Key:
# [1] = tested on: green foxtail; assay: Test Example 4: herbicidal effect by soil treatment (Table 19, symbol G); format: in vivo, green foxtail (Setaria viridis); settings: amount of applied herbicide 320 g/ha
# Method in brief: (§1)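 In this soil treatment, the formulated compound reached the seeds only through the soil: seeds were buried about 1.5 cm deep in sterilized diluvial soil, then the diluted emulsion was sprayed over the surface. After three weeks at 25° C. to 30° C. in a greenhouse, effects were graded on criteria from an earlier test.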
# [2] = tested on: Japanese bulrush; assay: Test Example 1: herbicidal activity, application before weed generation under submerged conditions (Table 16, symbol B); format: in vivo, Japanese bulrush (Schoenoplectus juncoides); settings: 320 g/ha applied herbicide
# Method in brief: (§2)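 Emulsion formulation, water-diluted to set dose, was put onto the flooded surface (4 cm depth, alluvial soil) the same day weeds were sown and 2.5-leaf rice transplanted. After 3 weeks at 25-30 °C under glass, each species was rated 0 (≤5% kill) to 5 (≥90% kill).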
# [3] = tested on: barnyard grass; assay: Test Example 4: herbicidal effect by soil treatment (Table 19, symbol H); format: in vivo, barnyard grass (Echinochloa crus-galli); settings: amount of applied herbicide 320 g/ha
# Method in brief: as §1
# [4] = tested on: velvetleaf; assay: Test Example 4: herbicidal effect by soil treatment (Table 19, symbol M); format: in vivo, velvetleaf (Abutilon theophrasti); settings: amount of applied herbicide 320 g/ha
# Method in brief: as §1
# [5] = tested on: wild oat; assay: Test Example 4: herbicidal effect by soil treatment (Table 19, symbol I); format: in vivo, wild oat (Avena fatua); settings: amount of applied herbicide 320 g/ha
# Method in brief: as §1
# [6] = tested on: windgrass; assay: Test Example 5: herbicidal effect by foliage application, plastic box (Table 20, symbol L); format: in vivo, windgrass (Apera spica-venti); settings: foliage application, 320 g/ha, evaluated three weeks after application
# Method in brief: (§3)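 Plants were sown into sterilized diluvial soil under about 1.5 cm cover and kept in a greenhouse at 25° C. to 30° C. Fourteen days on, foliage received an even spray of the diluted emulsion. Herbicidal or crop effect was judged three weeks afterwards.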
# [7] = tested on: wild oat; assay: Test Example 5: herbicidal effect by foliage application, plastic box (Table 20, symbol I); format: in vivo, wild oat (Avena fatua); settings: foliage application, 320 g/ha, evaluated three weeks after application
# Method in brief: as §3
# [8] = tested on: southern crabgrass; assay: Test Example 5: herbicidal effect by foliage application, plastic box (Table 20, symbol F); format: in vivo, southern crabgrass (Digitaria ciliaris); settings: foliage application, 320 g/ha, evaluated three weeks after application
# Method in brief: as §3
# [9] = tested on: persian speedwell; assay: Test Example 4: herbicidal effect by soil treatment (Table 19, symbol R); format: in vivo, Persian speedwell (Veronica persica); settings: amount of applied herbicide 320 g/ha
# Method in brief: as §1
# [10] = tested on: blackgrass; assay: Test Example 4: herbicidal effect by soil treatment (Table 19, symbol J); format: in vivo, blackgrass (Alopecurus myosuroides); settings: amount of applied herbicide 320 g/ha
# Method in brief: as §1
# [11] = tested on: velvetleaf; assay: Test Example 5: herbicidal effect by foliage application, plastic box (Table 20, symbol M); format: in vivo, velvetleaf (Abutilon theophrasti); settings: foliage application, 320 g/ha, evaluated three weeks after application
# Method in brief: as §3
# [12] = tested on: redroot pigweed; assay: Test Example 5: herbicidal effect by foliage application, plastic box (Table 20, symbol N); format: in vivo, redroot pigweed (Amaranthus retroflexus); settings: foliage application, 320 g/ha, evaluated three weeks after application
# Method in brief: as §3
# [13] = tested on: Chinese sprangletop; assay: Test Example 3: herbicidal effect by foliage application, Wagner pot (Table 18, symbol D); format: in vivo, chinese sprangletop (Leptochloa chinensis); settings: amount of applied herbicide 320 g/ha
# Method in brief: (§4)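 Plants were sown in alluvial soil held under 0.1–0.5 cm standing water and grown 14 days in a greenhouse at 25–30 °C. An emulsifiable formulation, water-diluted to the set dose, was then sprayed onto the foliage, and effects were scored three weeks later using previously defined criteria.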
# [14] = tested on: green foxtail; assay: Test Example 5: herbicidal effect by foliage application, plastic box (Table 20, symbol G); format: in vivo, green foxtail (Setaria viridis); settings: foliage application, 320 g/ha, evaluated three weeks after application
# Method in brief: as §3
# [15] = tested on: barnyard grass; assay: Test Example 5: herbicidal effect by foliage application, plastic box (Table 20, symbol H); format: in vivo, barnyard grass (Echinochloa crus-galli); settings: foliage application, 320 g/ha, evaluated three weeks after application
# Method in brief: as §3
# [16] = tested on: redroot pigweed; assay: Test Example 4: herbicidal effect by soil treatment (Table 19, symbol N); format: in vivo, redroot pigweed (Amaranthus retroflexus); settings: amount of applied herbicide 320 g/ha
# Method in brief: as §1
# [17] = tested on: late watergrass; assay: Test Example 1: herbicidal activity, application before weed generation under submerged conditions (Table 16, symbol A); format: in vivo, late watergrass (Echinochloa oryzicola); settings: 320 g/ha applied herbicide
# Method in brief: as §2
# [18] = tested on: Italian ryegrass; assay: Test Example 5: herbicidal effect by foliage application, plastic box (Table 20, symbol K); format: in vivo, Italian ryegrass (Lolium multiflorum); settings: foliage application, 320 g/ha, evaluated three weeks after application
# Method in brief: as §3
# [19] = tested on: rice flat sedge; assay: Test Example 3: herbicidal effect by foliage application, Wagner pot (Table 18, symbol E); format: in vivo, rice flat sedge (Cyperus iria); settings: amount of applied herbicide 320 g/ha
# Method in brief: as §4
# [20] = tested on: lambsquarters; assay: Test Example 5: herbicidal effect by foliage application, plastic box (Table 20, symbol O); format: in vivo, lambsquarters (Chenopodium album); settings: foliage application, 320 g/ha, evaluated three weeks after application
# Method in brief: as §3
# [21] = tested on: persian speedwell; assay: Test Example 5: herbicidal effect by foliage application, plastic box (Table 20, symbol R); format: in vivo, Persian speedwell (Veronica persica); settings: foliage application, 320 g/ha, evaluated three weeks after application
# Method in brief: as §3
# [22] = tested on: windgrass; assay: Test Example 4: herbicidal effect by soil treatment (Table 19, symbol L); format: in vivo, windgrass (Apera spica-venti); settings: amount of applied herbicide 320 g/ha
# Method in brief: as §1
# [23] = tested on: Italian ryegrass; assay: Test Example 4: herbicidal effect by soil treatment (Table 19, symbol K); format: in vivo, Italian ryegrass (Lolium multiflorum); settings: amount of applied herbicide 320 g/ha
# Method in brief: as §1
# [24] = tested on: barnyard grass; assay: Test Example 3: herbicidal effect by foliage application, Wagner pot (Table 18, symbol H); format: in vivo, barnyard grass (Echinochloa crus-galli); settings: amount of applied herbicide 320 g/ha
# Method in brief: as §4
# [25] = tested on: lambsquarters; assay: Test Example 4: herbicidal effect by soil treatment (Table 19, symbol O); format: in vivo, lambsquarters (Chenopodium album); settings: amount of applied herbicide 320 g/ha
# Method in brief: as §1
# [26] = tested on: oval-leafed pondweed; assay: Test Example 1: herbicidal activity, application before weed generation under submerged conditions (Table 16, symbol C); format: in vivo, oval-leafed pondweed (Monochoria vaginalis); settings: 320 g/ha applied herbicide
# Method in brief: as §2
# [27] = tested on: chickweed; assay: Test Example 5: herbicidal effect by foliage application, plastic box (Table 20, symbol P); format: in vivo, common chickweed (Stellaria media); settings: foliage application, 320 g/ha, evaluated three weeks after application
# Method in brief: as §3
# [28] = tested on: blackgrass; assay: Test Example 5: herbicidal effect by foliage application, plastic box (Table 20, symbol J); format: in vivo, blackgrass (Alopecurus myosuroides); settings: foliage application, 320 g/ha, evaluated three weeks after application
# Method in brief: as §3
# [29] = tested on: chickweed; assay: Test Example 4: herbicidal effect by soil treatment (Table 19, symbol P); format: in vivo, common chickweed (Stellaria media); settings: amount of applied herbicide 320 g/ha
# Method in brief: as §1
# [30] = tested on: southern crabgrass; assay: Test Example 4: herbicidal effect by soil treatment (Table 19, symbol F); format: in vivo, southern crabgrass (Digitaria ciliaris); settings: amount of applied herbicide 320 g/ha
# Method in brief: as §1
Structure (SMILES),herbicidal effect on G: green foxtail [1],Herbicidal effect on B: Japanese bulrush (grade 0-5) [2],herbicidal effect on H: barnyard grass [3],herbicidal effect on M: velvetleaf [4],herbicidal effect on I: wild oat [5],herbicidal effect on L: windgrass (criteria 0-5) [6],herbicidal effect on I: wild oat (criteria 0-5) [7],herbicidal effect on F: southern crabgrass (criteria 0-5) [8],herbicidal effect on R: persian speedwell [9],herbicidal effect on J: blackgrass [10],herbicidal effect on M: velvetleaf (criteria 0-5) [11],herbicidal effect on N: redroot pigweed (criteria 0-5) [12],herbicidal effect on D: Chinese sprangletop [13],herbicidal effect on G: green foxtail (criteria 0-5) [14],herbicidal effect on H: barnyard grass (criteria 0-5) [15],herbicidal effect on N: redroot pigweed [16],Herbicidal effect on A: late watergrass (grade 0-5) [17],herbicidal effect on K: Italian ryegrass (criteria 0-5) [18],herbicidal effect on E: rice flat sedge [19],herbicidal effect on O: lambsquarters (criteria 0-5) [20],further results
CCCC(=O)Oc1c(C)nn(C)c(=O)c1-c1c(-c2ccccc2C(F)(F)F)sc2ccc(F)cc12 [2-230],0 (Herbicidal rate of 5% or less (almost no effect)),0 (Herbicidal rate of 5% or less (almost no effect)),0 (Herbicidal rate of 5% or less (almost no effect)),0 (Herbicidal rate of 5% or less (almost no effect)),0 (Herbicidal rate of 5% or less (almost no effect)),3 (Herbicidal rate of 40% or more and less than 70%),0 (Herbicidal rate of 5% or less (almost no effect)),0 (Herbicidal rate of 5% or less (almost no effect)),0 (Herbicidal rate of 5% or less (almost no effect)),0 (Herbicidal rate of 5% or less (almost no effect)),5 (Herbicidal rate of 90% or more (almost completely withered)),5 (Herbicidal rate of 90% or more (almost completely withered)),5 (Herbicidal rate of 90% or more (almost completely withered)),3 (Herbicidal rate of 40% or more and less than 70%),2 (Herbicidal rate of 20% or more and less than 40%),0 (Herbicidal rate of 5% or less (almost no effect)),3 (Herbicidal rate of 40% or more and less than 70%),3 (Herbicidal rate of 40% or more and less than 70%),5 (Herbicidal rate of 90% or more (almost completely withered)),4 (Herbicidal rate of 70% or more and less than 90%),herbicidal effect on R: persian speedwell (criteria 0-5) [21]: 5 (Herbicidal rate of 90% or more (almost completely withered)); herbicidal effect on L: windgrass [22]: 0 (Herbicidal rate of 5% or less (almost no effect)); herbicidal effect on K: Italian ryegrass [23]: 2 (Herbicidal rate of 20% or more and less than 40%); herbicidal effect on H: barnyard grass [24]: 4 (Herbicidal rate of 70% or more and less than 90%); herbicidal effect on O: lambsquarters [25]: 0 (Herbicidal rate of 5% or less (almost no effect)); Herbicidal effect on C: oval-leafed pondweed (grade 0-5) [26]: 0 (Herbicidal rate of 5% or less (almost no effect)); herbicidal effect on P: chickweed (criteria 0-5) [27]: 5 (Herbicidal rate of 90% or more (almost completely withered)); herbicidal effect on J: blackgrass (criteria 0-5) [28]: 0 (Herbicidal rate of 5% or less (almost no effect)); herbicidal effect on P: chickweed [29]: 3 (Herbicidal rate of 40% or more and less than 70%); herbicidal effect on F: southern crabgrass [30]: 0 (Herbicidal rate of 5% or less (almost no effect))
Cc1nn(C)c(=O)c(-c2c(-c3cccc(OC(F)(F)F)c3)sc3ccc(F)cc23)c1O [2-236],0 (Herbicidal rate of 5% or less (almost no effect)),3 (Herbicidal rate of 40% or more and less than 70%),0 (Herbicidal rate of 5% or less (almost no effect)),0 (Herbicidal rate of 5% or less (almost no effect)),0 (Herbicidal rate of 5% or less (almost no effect)),1 (Herbicidal rate of 5% or more and less than 20%),0 (Herbicidal rate of 5% or less (almost no effect)),0 (Herbicidal rate of 5% or less (almost no effect)),0 (Herbicidal rate of 5% or less (almost no effect)),0 (Herbicidal rate of 5% or less (almost no effect)),1 (Herbicidal rate of 5% or more and less than 20%),5 (Herbicidal rate of 90% or more (almost completely withered)),3 (Herbicidal rate of 40% or more and less than 70%),3 (Herbicidal rate of 40% or more and less than 70%),0 (Herbicidal rate of 5% or less (almost no effect)),2 (Herbicidal rate of 20% or more and less than 40%),3 (Herbicidal rate of 40% or more and less than 70%),0 (Herbicidal rate of 5% or less (almost no effect)),5 (Herbicidal rate of 90% or more (almost completely withered)),2 (Herbicidal rate of 20% or more and less than 40%),herbicidal effect on R: persian speedwell (criteria 0-5) [21]: 3 (Herbicidal rate of 40% or more and less than 70%); herbicidal effect on L: windgrass [22]: 0 (Herbicidal rate of 5% or less (almost no effect)); herbicidal effect on K: Italian ryegrass [23]: 0 (Herbicidal rate of 5% or less (almost no effect)); herbicidal effect on H: barnyard grass [24]: 4 (Herbicidal rate of 70% or more and less than 90%); herbicidal effect on O: lambsquarters [25]: 1 (Herbicidal rate of 5% or more and less than 20%); Herbicidal effect on C: oval-leafed pondweed (grade 0-5) [26]: 2 (Herbicidal rate of 20% or more and less than 40%); herbicidal effect on P: chickweed (criteria 0-5) [27]: 5 (Herbicidal rate of 90% or more (almost completely withered)); herbicidal effect on J: blackgrass (criteria 0-5) [28]: 0 (Herbicidal rate of 5% or less (almost no effect)); herbicidal effect on P: chickweed [29]: 0 (Herbicidal rate of 5% or less (almost no effect)); herbicidal effect on F: southern crabgrass [30]: 0 (Herbicidal rate of 5% or less (almost no effect))
